Test results from the METLIN SMRT retention time set (Domingo-Almenara et al. 2019).

Test: gradient 5% acetonitrile 3 min, to 50% in 2 min, to 85% in 15 min, held 3 min, 100 µL/min
Settings: column: Zorbax Extend-C18 2.1 x 50 mm; eluents: water / acetonitrile, 0.1% formic acid
In short: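 Values are retention times taken from adduct peaks that software picked and an analyst inspected. The pure standards were run as mixtures of ~100 molecules on HPLC linked to a quadrupole time-of-flight mass spectrometer, in positive and negative ionization mode. A Zorbax Extend-C18 column (2.1 × 50 mm, 1.8 μm) was used at 100 μL/min with water and acetonitrile, each including 0.1% formic acid.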

| RP-LC retention time | SMILES |
| --- | --- |
| 746 s | O=C(CN1C(=O)CCS(=O)(=O)c2ccccc21)Nc1ccccc1C(F)(F)F |
| 766 s | Cc1ccc2c(ccn2CCNC(=O)C2CC(=O)N(c3n[nH]c4ccccc34)C2)c1 (stereo not given) |
| 592 s | O=C(c1ccccc1)N1CCCCC1c1nncn1CC1CC1 (stereo not given) |
| 1010 s | O=c1c2cnn(-c3ccc(F)cc3)c2ncn1Cc1nc(-c2ccccc2)no1 |
| 640 s | O=C(Nc1ccccc1C(F)(F)F)N1CCC(n2cnnc2C2CC2)C1 (stereo not given) |
| 1050 s | Cn1cc(C2=CCN(S(=O)(=O)c3ccc(F)c(Cl)c3)CC2)c2cccnc21 |
| 675 s | O=C(NCc1ccccc1)c1ccc(-c2cncnc2)nc1 |
| 580 s | COC[C@@H]1CN(Cc2ccc(F)c(Cl)c2)C[C@H]1c1nc(C)no1 |
| 928 s | Cc1cc(C)cc(S(=O)(=O)Nc2ccc3c(c2)CCC(=O)N3CC(C)C)c1 |
| 968 s | O=C(c1cn(-c2ccc(-c3nc(C4CC4)no3)cn2)cn1)N1CCc2ccccc2C1 |
| 896 s | Cc1ccc2c(c1)N(Cc1ccc(Cl)cc1)N=C(C(=O)N1CCOCC1)S2(=O)=O |
| 789 s | CCCc1noc(-c2ccnc(-n3cnc(C(=O)N4CCCC4)c3)c2)n1 |
| 632 s | Cc1ccc(C(=O)N2CCOc3ccc(N(C)C)cc3C2)s1 |
| 1080 s | CCOc1ccc(NC(=O)c2cc(S(=O)(=O)N3CCCC(C)C3)cn2C)cc1 (stereo not given) |
| 874 s | Cc1ccc(F)c(NC(=O)c2sc(-c3cn(C)c4ncccc34)nc2C)c1 |
| 966 s | Cc1nn(C)c(=O)c2cc(S(=O)(=O)NCCC3=CCCCC3)cn12 |
| 706 s | O=C(CCCSc1ccc(NC(=O)c2cccs2)nn1)Nc1cnc2ccccc2c1 |
| 783 s | Cc1ccc(NC(=O)N2CCc3nc(-c4ccc(Cl)cc4)ncc3C2)cc1 |
| 710 s | CCN(CC)C(=O)c1ccc(-c2nc3cc(NS(=O)(=O)c4ccc(F)cc4F)ccc3n2C)cc1 |
| 1110 s | COC1CN(c2cccc(F)c2)C12CCN(S(=O)(=O)c1cccc3cccnc13)CC2 (stereo not given) |
| 709 s | COc1ccc(OC)c(Nc2c(-c3ccc(C(=O)O)cc3)nc3cnccn23)c1 |
| 840 s | Cc1cc(C(=O)NC2CCCC2)c2cccc(Cl)c2n1 |
| 1080 s | O=C(CCc1nc(-c2ccc(N3CCCCCC3)cc2)no1)N1CCCC1 |

| RP-LC retention time | SMILES |
| --- | --- |
| 713 s | Cc1ccc2c(=O)c(C(=O)N3CCCCC3)cn(CC(=O)Nc3ccccc3)c2n1 |
| 670 s | O=C(Cn1nc2n(c1=O)CCCC2)Nc1ccc(F)c(Cl)c1 |
| 1110 s | CCN1C(=O)COc2ccc(-c3nc(NC(=O)c4cccc(Cl)c4)sc3C)cc21 |
| 913 s | CC(=O)Nc1cccc(Oc2nc(C)nc3sc4c(c23)CCCC4)c1 |
| 894 s | COc1ccc(-c2nc3cnccn3c2Nc2cccc(C(=O)O)c2)cc1 |
| 801 s | COc1ccc(OC)c(C2NC(=O)NC(C)=C2C(=O)OCC(F)(F)C(F)(F)F)c1 (stereo not given) |
| 592 s | O=S(=O)(c1cccnc1)N1CC(c2noc(C3CCCN3CC3CC3)n2)C1 (stereo not given) |
| 954 s | Cc1c(Cl)cccc1NC(=O)c1cnc(-c2ccccc2)nc1-c1ccncc1 |
| 662 s | O=C(Nc1cnn(-c2ncc(N3CCCCC3)cn2)c1)c1ccncc1 |
| 864 s | Cc1c(C(=O)N2CCCC2)cnn1-c1cc(-c2nc(C3CC3)no2)ccn1 |
| 592 s | CCC(=O)Nc1ccc(CCc2nc3ccc(C(=O)NCC4CCCO4)cc3[nH]2)cc1 (stereo not given) |
| 1210 s | COc1cc(OC)cc(C(=O)Nc2nc3c(s2)Cc2c(Br)ccc(OC)c2-3)c1 |
| 833 s | CCn1cccc1-c1nc(-c2ccncc2)no1 |
| 577 s | COc1ccc(NC(=O)N2CCN(c3cnn4c(C)nnc4c3)CC2)c(OC)c1 |
| 652 s | CN1C(=O)Cc2cc(C(=O)N3CCCCC3)ccc21 |
| 594 s | CCOC(=O)c1ccc(NC(=O)Cn2cnc3ccccc32)cc1 |
| 840 s | COc1ccc(-c2nnc(-c3ccccc3)o2)cc1S(=O)(=O)N(C)C |
| 983 s | O=C(NCc1cccs1)c1cnn2c(-c3ccc(Cl)cc3)ccnc12 |
| 559 s | CC(=O)N1CCC(n2c(C)nc(C(=O)N3CCCCC3)c2C)CC1 |
| 1280 s | CCOc1ccc(-c2nc(-c3ccc4oc(CC)nc4c3)no2)cc1 |
| 616 s | Cc1noc(C)c1S(=O)(=O)N1CCC(n2c(C)cnc2-c2cccnc2)C1 (stereo not given) |
| 812 s | Cc1cccc(NC(=O)Nc2nc(C)c(C(=O)NC3CCCC3)s2)c1 |
| 713 s | COc1cc(CNC(=O)COc2ccc(NC(=O)C3CC3)cn2)cc(OC)c1 |

| RP-LC retention time | SMILES |
| --- | --- |
| 766 s | CC(C)N1CCN(Cc2ccc(C(=O)NCc3cccc(C(F)(F)F)c3)cc2)C(=O)C1=O |
| 857 s | CCOc1ccccc1-n1nnc(-c2nn3c(Cc4ccccc4)nnc3s2)c1C |
| 635 s | O=C(C1CCCN(c2ccc(N3CCOCC3)nn2)C1)N1CCN(c2ccccc2)CC1 (stereo not given) |
| 635 s | NC(=O)CSc1nnc(N2CCN(C(=O)c3cc4ccccc4o3)CC2)s1 |
| 637 s | Cc1ccc(S(=O)(=O)NCCn2ncccc2=O)s1 |
| 1010 s | CCOc1ccc(S(=O)(=O)N2CCC(C(=O)Nc3ccc(OC)cc3OC)CC2)cc1C |
| 961 s | Cc1ccc(S(=O)(=O)N2CCCN(c3ccc(=O)n(-c4ccc(F)cc4)n3)CC2)c(C)c1 |
| 911 s | Cc1cccc(NC(=O)COc2ccc(-c3cnc4ccccc4n3)cc2)n1 |
| 870 s | O=C(Nc1cccc(Cl)c1)Nc1nccs1 |
| 658 s | Cn1c(=O)c(NCc2cccc(C(F)(F)F)c2)nc2ccncc21 |
| 792 s | COc1ccc(N2C(=O)CCS2(=O)=O)cc1S(=O)(=O)NCCc1c[nH]c2ccccc12 |
| 636 s | COc1cc(C(=O)Nc2c(-c3ccccc3)nc3ccccn23)cc(OC)c1OC |
| 587 s | Cc1ccsc1C(=O)NC1CCc2nnc(C3CC3)n2CC1 (stereo not given) |
| 612 s | COc1ccc(NC(=O)Nc2c(-c3ccccc3)nc3ccccn23)cc1OC |
| 660 s | COc1ccc(CCNc2ncnc(N)c2[N+](=O)[O-])cc1OC |
| 1280 s | Cc1ccc(C)c(-c2coc(-c3ccc(NC(=O)C(C)(C)C)cc3)n2)c1 |
| 936 s | COc1ccccc1-c1nc(-c2cn(Cc3cccc(F)c3)nn2)no1 |
| 796 s | Cc1cc2nn(CC(=O)Nc3ccccc3C)c(=O)n2c(-c2ccc(F)cc2)n1 |
| 720 s | CCc1ccc2c(c1)-c1ccccc1S(=O)(=O)N2CC(=O)NCc1ccccn1 |
| 943 s | Cc1nn(C)c(=O)c2cc(S(=O)(=O)N3CCC(Cc4ccccc4)CC3)cn12 |
| 702 s | Cc1ccccc1Nc1c(-c2ccc(N3CCOCC3)cc2)nc2cccc(C)n12 |
| 944 s | O=c1ccc(-c2ccccc2F)nn1Cc1nc(-c2ccc3c(c2)OCO3)no1 |
| 802 s | O=C(NCc1csc(-c2cccs2)n1)C1CCN(C(=O)c2cccc(Cl)c2)CC1 |

| RP-LC retention time | SMILES |
| --- | --- |
| 701 s | CC1=C(c2ccc(Cl)cc2)S(=O)(=O)N=C1N1CCCN(C(=O)c2cccnc2)CC1 |
| 995 s | O=C(NCc1ccc(Br)cc1)C(=O)c1c[nH]c2ccccc12 |
| 621 s | Cc1nc(OCC(=O)NCc2ccccc2)c2ccccc2n1 |
| 818 s | Oc1ccc(Nc2nc(-c3ccccc3)cs2)cc1 |
| 635 s | CCN(CC(=O)N1CCC(C(N)=O)CC1)S(=O)(=O)c1ccc(F)cc1 |
| 712 s | O=c1ccc(-c2ccc(F)cc2)nn1CCc1nc(-c2ccc(F)cc2)no1 |
| 1140 s | Cc1ccc(Cn2c(=O)c3sccc3n(Cc3nc(-c4ccc(C)cc4)no3)c2=O)cc1 |
| 725 s | Cc1noc(-c2nn(C)c3c2CN(C(=O)Nc2ccccc2Cl)CC3)n1 |
| 977 s | O=C1CC(c2nc(-c3ccccc3F)no2)CN1c1cccc(Cl)c1 (stereo not given) |
| 1170 s | CCc1cc(-c2csc(S(=O)(=O)N(Cc3ccccc3)C(C)C)c2)on1 |
| 677 s | COc1cc2c(cc1OC)CC(=O)N(CCCN(C)C[C@H]1Cc3cc(OC)c(OC)cc31)CC2 |
| 627 s | CCOC(=O)CCNC(=O)N1CCCCCCN(C)C(=O)CC1 |
| 642 s | CCNc1cc(N2CCC(CCC(=O)NCc3ccc(C)o3)CC2)ncn1 |
| 579 s | CCC(=O)NCc1nc2c(n1CC)CN(C(=O)c1ccc(C(F)(F)F)s1)CC2 |
| 1060 s | COc1cc(OC)cc(-c2nc(-c3nnn(Cc4ccccc4)c3C)no2)c1 |
| 707 s | COC(=O)c1ccc(NC(=O)C(=O)NCC(O)c2sccc2C)cc1 (stereo not given) |
| 760 s | O=C(c1ccc2c(c1)OCO2)N1CCC2(CC1)NC(=O)N(Cc1ccccc1)C2=O |
| 704 s | Nc1ncnc(Nc2ccc(Cl)cc2)n1 |
| 630 s | Cc1cc(C)n(CC(=O)N(C)C2CCc3nn(CC4CC4)c(=O)n3CC2)n1 (stereo not given) |
| 622 s | CC(Oc1c(Cl)cccc1Cl)C1=NCCN1 (stereo not given) |

| SMILES | RP-LC retention time |
| --- | --- |
| Cc1ccc(C(=O)N2[C@H]3CC[C@@H]2c2cnc(C)nc2C3)cn1 | 562 s |
